The source of these data is EP2818472A1, “Imidazo[4,5-c]pyridine and pyrrolo[3,2-c]pyridine compounds as G-protein-coupled receptor kinase 5 (GRK5) modulators” (Max-Planck-Gesellschaft zur Förderung der Wissenschaften …, priority 2013, dated 2014).

The assay deals with beta-TC6 cells. Kind of assay: Insulin HTRF assay (relative activity Ar) in beta-TC6 cells. It counts as cell-based, mouse. The note with it: Mus musculus, Beta-TC6, 4 h, insulin HTRF, supernatant of beta-TC6 cells, incubation with test compound at 37°C for 2, 3, 4h; read-out: Ar (relative activity). A digest of the protocol: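 beta-TC6 cells (15k/well, seeded 24 or 48 h) washed, then exposed to compound in induction buffer (0.5% DMSO final) for 2, 3 or 4 h at 37°C.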
On the technique in general: Time-resolved FRET reads energy transfer from a long-lived donor to a nearby acceptor.

Regarding `COc1cc(Nc2cc3c(cn2)nc(NCc2ccccc2)n3C)cc(OC)c1OC` [Compound 616, N2-benzyl-1-methyl-N6-(3,4,5-trimethoxyphenyl)imidazo[4,5-c]pyridine-2,6-diamine], the Emax lay in the range of 50 to 100%.

`Cc1ccc(-c2nc3c(Nc4ccccc4)nccc3[nH]2)cc1` [Compound 380, N-phenyl-2-(p-tolyl)-1H-imidazo[4,5-c]pyridin-4-amine]: the Emax lay within 30 to 50%.

With `COc1cccc(-c2nc3c(NC4CCC(N)CC4)nccc3[nH]2)c1F` (stereo not shown) [Compound 476, N4-[2-(2-fluoro-3-methoxy-phenyl)-1H-imidazo[4,5-c]pyridin-4-yl]cyclohexane-1,4-diamine], the Emax was in the range of 0 to 30%.

Turning to `Clc1cccc(Nc2nccc3[nH]c(-c4ccncc4)nc23)c1` [Compound 424, N-(3-chlorophenyl)-2-(4-pyridyl)-1H-imidazo[4,5-c]pyridin-4-amine], the Emax was in the range of 30 to 50%.

As to `COc1ccc(Nc2nccc3c2cc(-c2cccnc2)n3C)c(C)c1` [Compound 240, N-(4-methoxy-2-methyl-phenyl)-1-methyl-2-(3-pyridyl)pyrrolo[3,2-c]pyridin-4-amine], the Emax was in the range of 0 to 30%.

In the case of `COc1cc(Nc2cc3[nH]c(-c4ccc(C(=O)N(C)C)cc4)cc3cn2)cc(OC)c1OC` [Compound 18, N,N-dimethyl-4-[6-(3,4,5-trimethoxyanilino)-1H-pyrrolo[3,2-c]pyridin-2-yl]benzamide], the Emax was in the range of 50 to 100%.

Turning to `Fc1cccc(-c2cc3cnc(Nc4ccc(F)c(Cl)c4)cc3[nH]2)c1` [Compound 9, N-(3-chloro-4-fluoro-phenyl)-2-(3-fluorophenyl)-1H-pyrrolo[3,2-c]pyridin-6-amine], the Emax fell in the range of 0 to 30%.

For the compound `OC1CCC(Nc2nccc3[nH]c(-c4cccc(OC(F)(F)F)c4)nc23)CC1` (stereo not shown) [Compound 443, 4-[[2-[3-(trifluoromethoxy)phenyl]-1H-imidazo[4,5-c]pyridin-4-yl]amino]cyclohexanol], the Emax is 30 to 50%.

Consider `Oc1cccc(Nc2nccc3[nH]c(-c4ccc5c(c4)OCCO5)nc23)c1` [Compound 418, 3-[[2-(2,3-dihydro-1,4-benzodioxin-6-yl)-1H-imidazo[4,5-c]pyridin-4-yl]amino]phenol], for which the Emax lay in the range of 50 to 100%.

`CN(C)c1ccc(CNc2nccc3[nH]c(-c4ccncc4)nc23)cc1` [Compound 430, N-[(4-dimethylaminophenyl)methyl]-2-(4-pyridyl)-1H-imidazo[4,5-c]pyridin-4-amine]: the Emax lay in the range of 50 to 100%.

As for `CS(=O)(=O)c1cccc(Nc2nccc3[nH]c(-c4ccccc4)nc23)c1` [Compound 336, N-(3-methylsulfonylphenyl)-2-phenyl-1H-imidazo[4,5-c]pyridin-4-amine], the Emax lay within 30 to 50%.

On to `COc1ccc(-c2cc3c(cn2)nc(NCc2ccccc2F)n3C)cc1OC` [Compound 865, 6-(3,4-dimethoxyphenyl)-N-[(2-fluorophenyl)methyl]-1-methyl-imidazo[4,5-c]pyridin-2-amine], for which the Emax lay within 30 to 50%.

With `CNc1nc2cnc(Nc3ccc4c(c3)OCO4)cc2n1CCOC` [Compound 497, N6-(1,3-benzodioxol-5-yl)-1-(2-methoxyethyl)-N2-methyl-imidazo[4,5-c]pyridine-2,6-diamine], the Emax was 50 to 100%.

For `CN(C)c1cccc(Nc2nccc3c2cc(-c2cccnc2)n3C)c1` [Compound 239, N1,N1-dimethyl-N3-[1-methyl-2-(3-pyridyl)pyrrolo[3,2-c]pyridin-4-yl]benzene-1,3-diamine], the Emax was in the range of 30 to 50%.

Turning to `COCCNc1nc2cnc(Nc3ccc(C(=O)OC)cc3)cc2n1C` [Compound 649, methyl 4-[[2-(2-methoxyethylamino)-1-methyl-imidazo[4,5-c]pyridin-6-yl]amino]benzoate], the Emax fell in the range of 50 to 100%.

Regarding `COc1ccc(CNc2nc3cnc(Nc4ccc(C(N)=O)cc4)cc3n2C)cc1OC` [Compound 601, 4-[[2-[(3,4-dimethoxyphenyl)methylamino]-1-methyl-imidazo[4,5-c]pyridin-6-yl]amino]benzamide], the Emax was 50 to 100%.

As for `COc1cc(Nc2cc3c(cn2)ncn3C)cc(OC)c1OC` [Compound 725, 1-methyl-N-(3,4,5-trimethoxyphenyl)imidazo[4,5-c]pyridin-6-amine], the Emax lay in the range of 30 to 50%.

With `c1cc2[nH]c(-c3ccsc3)cc2c(N2CCOCC2)n1` [Compound 191, 4-[2-(3-thienyl)-1H-pyrrolo[3,2-c]pyridin-4-yl]morpholine], the Emax is 50 to 100%.

Turning to `CNc1nc2cnc(Nc3ccc(Oc4ccccc4)cc3)cc2n1C` [Compound 749, N2,1-dimethyl-N6-(4-phenoxyphenyl)imidazo[4,5-c]pyridine-2,6-diamine], the Emax was in the range of 0 to 30%.

For the compound `CN(c1ccccc1)c1cc2c(cn1)cc(-c1cnn(C)c1)n2C` [Compound 140, N,1-dimethyl-2-(1-methylpyrazol-4-yl)-N-phenyl-pyrrolo[3,2-c]pyridin-6-amine], the Emax fell in the range of 30 to 50%.

As to `COc1cc(Nc2cc3c(cn2)nc(-c2ccccc2)n3C)cc(OC)c1OC` [Compound 701, 1-methyl-2-phenyl-N-(3,4,5-trimethoxyphenyl)imidazo[4,5-c]pyridin-6-amine], the Emax fell in the range of 50 to 100%.

In the case of `CN1CCN(c2ccc(Nc3cc4[nH]c(-c5ccc(C(=O)N(C)C)cc5)cc4cn3)cc2)CC1` [Compound 26, N,N-dimethyl-4-[6-[4-(4-methylpiperazin-1-yl)anilino]-1H-pyrrolo[3,2-c]pyridin-2-yl]benzamide], the Emax is 50 to 100%.

With `Oc1cccc(Nc2nccc3[nH]c(-c4ccccc4)nc23)c1` [Compound 337, 3-[(2-phenyl-1H-imidazo[4,5-c]pyridin-4-yl)amino]phenol], the Emax lay in the range of 30 to 50%.

`Cn1c(NCc2ccccc2F)nc2cnc(-c3cccc(CO)c3)cc21` [Compound 868, [3-[2-[(2-fluorophenyl)methylamino]-1-methyl-imidazo[4,5-c]pyridin-6-yl]phenyl]methanol]: the Emax is 0 to 30%.

Consider `CNc1nc2cnc(Nc3cccc(OC)c3)cc2n1Cc1cccnc1` [Compound 560, N6-(3-methoxyphenyl)-N2-methyl-1-(3-pyridylmethyl)imidazo[4,5-c]pyridine-2,6-diamine], for which the Emax lay within 50 to 100%.

Regarding `COCCNc1nc2cnc(-c3cccc(OC(F)(F)F)c3)cc2n1C` [Compound 855, N-(2-methoxyethyl)-1-methyl-6-[3-(trifluoromethoxy)phenyl]imidazo[4,5-c]pyridin-2-amine], the Emax lay in the range of 30 to 50%.

Take `COc1ccc(Nc2nccc3[nH]c(-c4ccccc4)nc23)cc1` [Compound 333, N-(4-methoxyphenyl)-2-phenyl-1H-imidazo[4,5-c]pyridin-4-amine]: the Emax was in the range of 50 to 100%.

`CNc1nc2cnc(Nc3ccc(NC(C)=O)cc3)cc2n1Cc1ccc(OC)c(OC)c1` [Compound 661, N-[4-[[1-[(3,4-dimethoxyphenyl)methyl]-2-(methylamino)imidazo[4,5-c]pyridin-6-yl]amino]phenyl]acetamide]: the Emax was 50 to 100%.

`COc1ccc(Nc2nccc3[nH]c(-c4ccncc4)nc23)cc1O` [Compound 432, 2-methoxy-5-[[2-(4-pyridyl)-1H-imidazo[4,5-c]pyridin-4-yl]amino]phenol]: the Emax was above 100%.

On to `COc1ccc(-c2nc3c(N4CCOCC4)nccc3[nH]2)cc1OC` [Compound 353, 4-[2-(3,4-dimethoxyphenyl)-1H-imidazo[4,5-c]pyridin-4-yl]morpholine], for which the Emax was in the range of 50 to 100%.

With `CN(C)C(=O)c1ccc(-c2cc3cnc(Nc4ccc(S(C)(=O)=O)cc4)cc3[nH]2)cc1` [Compound 43, N,N-dimethyl-4-[6-(4-methylsulfonylanilino)-1H-pyrrolo[3,2-c]pyridin-2-yl]benzamide], the Emax is 50 to 100%.

Turning to `CNc1nc2cnc(Nc3cccc(C)c3)cc2n1Cc1ccc(OC)c(OC)c1` [Compound 671, 1-[(3,4-dimethoxyphenyl)methyl]-N2-methyl-N6-(m-tolyl)imidazo[4,5-c]pyridine-2,6-diamine], the Emax lay in the range of 30 to 50%.

As for `CNc1nc2cnc(Nc3ccc4c(c3)OCCO4)cc2n1-c1cc(OC)c(OC)c(OC)c1` [Compound 487, N6-(2,3-dihydro-1,4-benzodioxin-6-yl)-N2-methyl-1-(3,4,5-trimethoxyphenyl)imidazo[4,5-c]pyridine-2,6-diamine], the Emax was 50 to 100%.

Consider `COc1cc(OC)cc(-c2cc3c(Nc4cccc(NS(C)(=O)=O)c4)nccc3[nH]2)c1` [Compound 292, N-[3-[[2-(3,5-dimethoxyphenyl)-1H-pyrrolo[3,2-c]pyridin-4-yl]amino]phenyl]methanesulfonamide], for which the Emax fell in the range of 30 to 50%.

For `CNc1nc2cnc(Nc3ccc(SC)cc3)cc2n1CCOC` [Compound 499, 1-(2-methoxyethyl)-N2-methyl-N6-(4-methylsulfanylphenyl)imidazo[4,5-c]pyridine-2,6-diamine], the Emax fell in the range of 50 to 100%.

Take `CC(C)Oc1cccc(Nc2cc3[nH]c(-c4ccc(C(=O)N(C)C)cc4)cc3cn2)c1` [Compound 44, 4-[6-(3-isopropoxyanilino)-1H-pyrrolo[3,2-c]pyridin-2-yl]-N,N-dimethyl-benzamide]: the Emax lay within 30 to 50%.

As for `COc1cccc(-c2cc3c(Nc4ccc(NC(C)=O)cc4)nccc3[nH]2)c1` [Compound 306, N-[4-[[2-(3-methoxyphenyl)-1H-pyrrolo[3,2-c]pyridin-4-yl]amino]phenyl]acetamide], the Emax fell in the range of 50 to 100%.

Regarding `CNc1nc2cnc(-c3ccccc3Oc3ccccc3)cc2n1Cc1ccccc1` [Compound 529, 1-benzyl-N-methyl-6-(2-phenoxyphenyl)imidazo[4,5-c]pyridin-2-amine], the Emax fell in the range of 30 to 50%.

As to `COc1ccc(OC)c(CCNc2nc3cnc(-c4ccc(O)c(OC)c4)cc3n2C)c1` [Compound 594, 4-[2-[2-(2,5-dimethoxyphenyl)ethylamino]-1-methyl-imidazo[4,5-c]pyridin-6-yl]-2-methoxy-phenol], the Emax was 30 to 50%.

Consider `COc1ccc(-c2nc3cnc(Nc4ccc(C(N)=O)cc4)cc3n2C)cc1OC` [Compound 719, 4-[[2-(3,4-dimethoxyphenyl)-1-methyl-imidazo[4,5-c]pyridin-6-yl]amino]benzamide], for which the Emax lay within 30 to 50%.
